Reference: patent publication US8883504B2, “Cell differentiation suppressing agent, method of culturing cells using the same, culture solution, and cultured cell line” (Asahi Kasei Kabushiki Kaisha, priority 2003, dated 2014)

Test system: Oct-3/4 gene
Test: Oct-3/4 gene expression level by real time PCR (ES cell differentiation inhibition assay 2)
Format: cell-based, mouse
Conditions: D3ES cells, 7 days; for expression of Oct-3/4 gene in comparison with ES cells cultured in the medium without the differentiation inhibiting agent: GAPDH internal standard, FIG. 6; for effect of keeping the expression of the Oct-3/4 gene relative to ESGRO: compared with 1,000 units/mL of ESGRO
Protocol: For the D3ES cells prepared by the method described in (3) preparation of a mouse ES cell of Example 1, 8×10^4 cells were seeded in a 10 cm-diameter cell culture dish coated previously with a 0.1% aqueous gelatin solution to make 10 mL of the ES cell assay medium. 1 mL of the differentiation inhibiting agent A to F, which were dissolved in dimethylsulfoxide (DMSO) or culture medium or their mixture to make 40 μg/mL per each dish, or ESGRO, which was adjusted to make 10^4 unit/mL, was added, and culturing was carried out at 37° C. in 5% […] incubator for 7 days. To the culture medium was added DMSO to make the final concentration 0.1% or lower.
A total RNA was extracted from the ES cells cultured by the method described in (1) ES cell differentiation inhibition assay 2 as described above, by using ISOGEN (K.K. Nippon Gene, Japan made) by the attached method. First, the medium was removed from the dish after the culture, the cells were washed twice with 10 mL of PBS, and dissolved in 1 mL of ISOGENE. After leaving stand at room temperature for 5 minutes, the solution was collected in a 1.5 mL Eppendorf tube. 0.2 mL of chloroform (Wako Pure Chemical Industries made) was added, shaken for 15 seconds and, then, left stand at room temperature for 2 or 3 minutes. The solution was centrifuged at 4° C. at 10000 rpm for 10 minutes by using a micro centrifuge (TOMY SEIKO Corp. made). 400 μL of the supernatant was transferred to a fresh 1.5 mL Eppendorf tube, 500 μL of isopropanol (Wako Pure, Chemical Industries made) was added, and left stand at room temperature for 10 minutes, and, then, centrifuged at 4° C. at 10000 rpm for 10 minutes by using the micro centrifuge. After the supernatant was removed, 1 mL of a 70% aqueous ethanol solution was added followed by shaking and, then, centrifugation was carried out at 4° C. at 10000 rpm for about 5 minutes by using, the micro centrifuge. After the supernatant was removed, a precipitation was dried and dissolved in 30 μL of distilled water to obtain the total RNA solution.
2 μg of the thus obtained total RNA was used as a template to synthesize a cDNA according to the attached protocol by using Deoxyribonuclease I (Amplification Grade)(Invitrogen Corp. made), Oligo(dT) 12-18 primer (Invitrogen Corp. made, 18418-012) and Omniscript reverse transcriptase (QIAGEN Corp, made). Thus, a reaction solution was prepared by adding 1 μL of 10× DNaseI Reaction Buffer, 1 μL of 10× DNaseI (all were made by Invitrogen Corp.) and distilled water to 2 μg of total RNA to make 10 μL in total, and the mixture was incubated at room temperature for 10 minutes. 1 μL of 25 mM EDTA solution was added and heated at 65° C. for 10 minutes. The mixture was cooled to room temperature, and then, 2 μL of 10× Buffer RT, 2 μL of 5 mM dNTP Mix, 2 μL of Oligo(dT) 12-18 primer, 0.25 μL of RNaseOUT (Invitrogen Corp. made, 10777-019) and 1 μL of Omniscript Reverse Transcriptase were added, and RNase-free purified water was added to give the total volume of 20 μL, and the mixture was incubated at 37° C. for 60 minutes to obtain cDNA solution. A portion of the synthesized cDNA obtained in such the way was diluted 5 folds with distilled water, and 2 μL of the solution was used as the template to conduct PCR by using Light Cycler-Fast Start DNA Master SYBR Green I Kit (Roche Diagnostics Corp. made) according to the attached protocol. The expression levels of the Oct-3/4 gene and glyceraldehyde-3-phosphate dehydrogenase (GAPDH) gene as the internal standard were measured. For amplifying the Oct-3/4 gene, sense primer OCT3 up (SEQ ID No.: 1) and antisense primer Oct3 down (SEQ ID No.: 2) were used, and for amplifying the GAPDH gene, sense primer GAPDH up (SEQ ID No.: 3) and antisense primer GAPDH down (SEQ ID No.: 4) were used. The composition of the PCR reaction solution and the reaction condition will be each presented below.

Structure (SMILES) | expression of Oct-3/4 gene in comparison with ES cells cultured in the medium without the differentiation inhibiting agent | effect of keeping the expression of the Oct-3/4 gene relative to ESGRO
CC1(C)Cc2ccccc2C(=C(N=Nc2cccc(Cl)c2)C(N)=O)N1 [C, 2-(3-chloro-phenylazo)-2-(3,3-dimethyl-3,4-dihydro-2H-isoquinoline-1-ylidene)-acetamide] | maintained the expression of the Oct-3/4 gene | –
CC1(C)Cc2ccccc2C(=C(N=Nc2cccc([N+](=O)[O-])c2)C(N)=O)N1 [E, 2-(3,3-dimethyl-3,4-dihydro-2H-isoquinoline-1-ylidene)-2-(3-nitro-phenylazo)-acetamide] | maintained the expression of the Oct-3/4 gene | –
COc1ccc(N=NC(C(N)=O)=C2NC(C)(C)Cc3ccccc32)cc1 [F, 2-(3,3-dimethyl-3,4-dihydro-2H-isoquinoline-1-ylidene)-2-(4-methoxy-phenylazo)-acetamide] | significantly promoted | comparable with 1,000 units/mL of ESGRO
CC(=O)c1ccc(/N=N/C(C(N)=O)=C2/NC(C)(C)Cc3ccccc32)cc1 [compound B, 2-(4-acetyl-phenylazo)-2-(3,3-dimethyl-3,4-dihydro-2H-isoquinoline-1-ylidene)-acetamide] | significantly promoted | comparable with 1,000 units/mL of ESGRO
